# BindingDB's records for doi:10.1021/jm9800447 (The George Washington University Medical Center, 1998)
# pKi: −log10 of the molar value.
# Target: Sigma non-opioid intracellular receptor 1 (Cavia porcellus) (UniProt Q60492)
# Assay: Inhibition of [3H](+)-pentazocine binding to sigma-1 receptor in guinea pig brain membranes
# Chain of Sigma non-opioid intracellular receptor 1 (Cavia porcellus) (Q60492 whole entry, looked up): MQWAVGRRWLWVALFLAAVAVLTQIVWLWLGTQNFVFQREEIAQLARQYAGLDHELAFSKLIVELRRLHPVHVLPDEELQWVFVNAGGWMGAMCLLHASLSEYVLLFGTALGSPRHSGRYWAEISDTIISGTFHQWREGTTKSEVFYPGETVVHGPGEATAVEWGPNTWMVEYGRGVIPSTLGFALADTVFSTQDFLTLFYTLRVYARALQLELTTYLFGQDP
row,Structure (SMILES),pKi
1,COc1ccc(S(=O)(=O)NCCN2CCCCC2)cc1I [3-Iodo-4-methoxy-N-(2-piperidin-1-yl-ethyl)-benzenesulfonamide],7.38
2,O=S(=O)(NCCN1CCCC1)c1ccc(Br)cc1 [4-Bromo-N-(2-pyrrolidin-1-yl-ethyl)-benzenesulfonamide],8.18
3,O=S(=O)(NCCN1CCCC1)c1ccc(I)cc1 [4-Iodo-N-(2-pyrrolidin-1-yl-ethyl)-benzenesulfonamide],8.37
4,COc1ccc(S(=O)(=O)N(C)CCN2CCCCCC2)cc1I [N-(2-Azepan-1-yl-ethyl)-3-iodo-4-methoxy-N-methyl-benzenesulfonamide],8.51
5,CN(CCN1CCCCCC1)S(=O)(=O)c1ccc(Br)cc1 [N-(2-Azepan-1-yl-ethyl)-4-bromo-N-methyl-benzenesulfonamide],9.74
6,CN(CCN1CCCCCC1)S(=O)(=O)c1ccc(I)cc1 [N-(2-Azepan-1-yl-ethyl)-4-iodo-N-methyl-benzenesulfonamide],9.85

# Further molecules by rising pKi, results first:
row,pKi,Structure (SMILES)
1,8.00,CCN(CC)CCNS(=O)(=O)c1ccc(Br)cc1 [4-Bromo-N-(2-diethylamino-ethyl)-benzenesulfonamide]
2,8.30,CCN(CC)CCNS(=O)(=O)c1ccc(I)cc1 [N-(2-Diethylamino-ethyl)-4-iodo-benzenesulfonamide]
3,8.81,O=S(=O)(NCCN1CCCCC1)c1ccc(Br)cc1 [4-Bromo-N-(2-piperidin-1-yl-ethyl)-benzenesulfonamide]
4,8.88,O=S(=O)(NCCN1CCCCCC1)c1ccc(I)cc1 [N-(2-Azepan-1-yl-ethyl)-4-iodo-benzenesulfonamide]
5,9.20,O=S(=O)(NCCN1CCCCCC1)c1ccc(Br)cc1 [N-(2-Azepan-1-yl-ethyl)-4-bromo-benzenesulfonamide]
6,9.34,O=S(=O)(NCCN1CCCCC1)c1ccc(I)cc1 [4-Iodo-N-(2-piperidin-1-yl-ethyl)-benzenesulfonamide]
